Laboratory results as given in patent US7897588B2, “Agents and methods for enhancing bone formation” (The Regents of the University of California, priority 2003, dated 2011).

Experiments:
M2 cells = test: Adipogenesis of troglitazone-treated M2 cells (oil Red O staining, adipocyte count); assay type: cell-based, mouse; settings: M2 cells treated with Tro 10 μM, oxysterols 10 μM, 10 days
Experimental: Von Kossa and oil red O staining—Matrix mineralization in cell monolayers was detected by silver nitrate staining as previously described. Oil red O staining for detection of adipocytes was performed as previously described.
Test 1: M2 cells at 90% confluence were treated with vehicle (C), PPAR-γ activator, troglitazone 10 uM (Tro), alone or in combination with 10 μM oxysterols 20S-, 22R-, or 25S-hydroxycholesterol. After 8 days, adipocytes were identified by oil Red 0 staining and quantified by counting under a phase contrast microscope. FIG. 6A is a bar graph depicting the effect of oxysterols on reducing adipogenesis of MSC.
Test 2: (A) M2 cells at confluence were treated in RPMI containing 10% FBS with control vehicle or 10 μM troglitazone (Tro) in the absence or presence of 10 μM 20S or 22S oxysterols. After 10 days, adipocytes were visualized by oil Red O staining and quantified by light microscopy, shown in (B). Data from a representative of four experiments are shown, reported as the mean SD of quadruplicate determinations (p<0.001 for Tro vs. Tro+20S and Tro+22S). (C) M2 cells were treated at confluence with 10 μM Tro, alone or in combination with 10 μM 20S oxysterol. After 10 days, total RNA was isolated and analyzed for lipoprotein lipase (LPL), adipocyte P2 gene (aP2) or 18S rRNA expression by Northern blotting as described (Ref). Data from densitometric analysis of the Northern blot is shown in (D) as the average of duplicate samples, normalized to 18S rRNA.

[1] = tested on: M2-10B4 mouse marrow stromal cell line; test: Alkaline phosphatase (ALP) activity assay in M2 cells; assay type: cell-based; settings: for dose and time dependence of induction of alkaline phosphatase activity: concentrations between 0.5-10 μM; for alkaline phosphatase activity: ligands used at 10 μM, control C: 18±2, ±SD; for induction of alkaline phosphatase activity: osteogenic medium, 10 μM oxysterols, 3 days
Experimental: Cells: M2-10B4 mouse marrow stromal cell line obtained from American Type Culture Collection (ATCC, Rockville, Md., U.S.A.) was derived from bone marrow stromal cells of a (C57BL/6J×C3H/HeJ) F1 mouse, and support human and murine myelopoiesis in long-term cultures (as per ATCC) and have the ability to differentiate into osteoblastic and adipocytic cells. Unless specified, these cells were cultured in RPMI 1640 containing 10% heat-inactivated FBS, and supplemented with 1 mM sodium pyruvate, 100 U/ml penicillin, and 100 […] (all from Irvine Scientific).
Alkaline phosphatase activity assay: Colorimetric alkaline phosphatase (ALP) activity assay on whole cell extracts was performed as previously described.
Test 1: M2 cells at confluence were treated with control vehicle (C), or 10 μM oxysterols, in an osteogenic medium consisting of RPMI 1640 to which 10% fetal bovine serum (FBS), 50 μg/ml ascorbate and 3 mM beta-glycerophosphate (βGP) were added. After 3 days of incubation, alkaline phosphatase (ALP) activity was determined in cell homogenates by a colorimetric assay. […] FIG. 3A is a bar graph depicting the effect of various oxysterols on alkaline phosphatase activity in M2 cells.
M2 cells at confluence were treated in osteogenic medium with control vehicle (C) or a combination of 22R and 20S oxysterols, at the indicated concentrations. ALP activity was measured after 3 days as described above. […] FIG. 3B is a bar graph depicting the effect of a combination of oxysterols at various doses on alkaline phosphatase activity in M2 cells.
Test 2: M2 cells were grown in RPMI medium containing 10% fetal bovine serum (FBS). At confluence, the cells were treated in RPMI containing 5% FBS plus ascorbate at 50 μg/ml and β-glycerophosphate at 3 mM to induce osteoblastic differentiation. Adipogenic differentiation was induced by treating the cells in growth medium plus 10 ˜M troglitazone. A vehicle (C) or oxysterol treatment was applied to cells in a variety of doses (in μM): 20S-Hydroxycholesterol, 25-Hydroxycholesterol, 22R-Hydroxycholesterol; 22S-Hydroxycholesterol; 7-ketocholesterol. Cells were always treated at 90% confluence. After 4 days, alkaline phosphatase activity was determined in whole cell lysates and normalized to protein. Alternatively, MSC cultures were prepared and treated with oxysterols as described above. Cells were treated at 90% confluence with the combination of 22R-Hydroxycholesterol and 20S-Hydroxycholesterol, each at 5 uM, for 4 to 96 hours. The oxysterols where removed and fresh media without oxysterols was added for a total duration of 96 hours. Alkaline phosphatase activity was measured in whole cell extracts and normalized to protein.
M2 cells were treated at 90% confluence with vehicle (C), or oxysterols 20S-Hydroxycholesterol or 22S-Hydroxycholesterol at (0.5 μM) or (1 μM), in the absence or presence of cytochrome P450 inhibitor (SKF525A 10 μM (+)). MSC cultures were also treated at 90% confluence with vehicle (C), or 20S-Hydroxycholesterol (2 μM), in the absence or presence of cytochrome P450 […] (Benzylimidazole 50 μM) or SKF525A (10 μM). After 4 days, alkaline phosphatase activity was measured in whole cell extracts and normalized to protein.
Next, a combination of 22R and 20S oxysterols (RS, 2.5 μM each) were added in the presence or absence of SC as indicated. After 3 days, ALP activity was measured as described earlier. […] (B) M2 cells were treated as described in (A) and after 10 days matrix mineralization in cultures was quantified by a ^45Ca incorporation assay as described earlier.

adipocyte P2 gene (aP2) = test: Northern blot for adipocyte P2 gene in troglitazone-treated M2 cells; assay type: cell-based, mouse; settings: 10 μM Tro, 10 μM 20S, 10 days
Experimental: RNA isolation and Northern blot analysis—Following treatment of cells under appropriate experimental conditions, total RNA was isolated using the RNA isolation kit from Stratagene (La Jolla, Calif., U.S.A.). Total RNA ([…]) was run on a 1% agarose/formaldehyde gel and transferred to Duralon-UV membranes (Strategene, Calif., U.S.A.) and cross-linked with UV light. The membranes were hybridized overnight at 60 degree C. with ^32P-labeled mouse osteocalcin cDNA probe, mouse lipoprotein lipase (LPL), mouse adipocyte protein 2 (aP2) PCR-generated probes, human 28S or 18S rRNA probes obtained from Geneka Biotechnology (Montreal, Quebec, Canada) and Maxim Biotech (San Francisco, Calif., U.S.A.), respectively. […] The extent of gene induction was determined by densitometry.
Test 2: (A) M2 cells at confluence were treated in RPMI containing 10% FBS with control vehicle or 10 μM troglitazone (Tro) in the absence or presence of 10 μM 20S or 22S oxysterols. After 10 days, adipocytes were visualized by oil Red O staining and quantified by light microscopy, shown in (B). […] After 10 days, total RNA was isolated and analyzed for lipoprotein lipase (LPL), adipocyte P2 gene (aP2) or 18S rRNA expression by Northern blotting as described (Ref). […]

Row | Structure (SMILES) | inhibition of adipogenesis (M2 cells) | dose and time dependence of induction of alkaline phosphatase activity [1] | alkaline phosphatase activity [1] | induction of alkaline phosphatase activity [1] | effect on alkaline phosphatase activity ([1]; TO at 1-10 μM) | expression of adipocyte P2 gene (aP2) (adipocyte P2 gene (aP2))
1 | CC(C)CC[C@@H](O)[C@@H](C)[C@H]1CC[C@H]2[C@@H]3CC=C4C[C@@H](O)CC[C@]4(C)[C@H]3CC[C@]12C [22R, 22(R)-hydroxycholesterol] | inhibited adipogenesis | dose- and time-dependent | 45±5 activity units/mg protein | induced |  | 
2 | CC(C)CC[C@H](O)[C@@H](C)[C@H]1CC[C@H]2[C@@H]3CC=C4C[C@@H](O)CC[C@]4(C)[C@H]3CC[C@]12C [22S, 22(S)-hydroxycholesterol] | inhibited adipogenesis | dose- and time-dependent |  | induced |  | 
3 | O=S(=O)(c1ccccc1)N(CC(F)(F)F)c1ccc(C(O)(C(F)(F)F)C(F)(F)F)cc1 [TO, TO-901317] |  |  | 3±0.5 activity units/mg protein |  | dose-dependent inhibition | 
4 | CC(C)CCC[C@](C)(O)[C@H]1CC[C@H]2[C@@H]3CC=C4C[C@@H](O)CC[C@]4(C)[C@H]3CC[C@@]21C [20S, 20(S)-hydroxycholesterol] | inhibited adipogenesis | dose- and time-dependent | 140±12 activity units/mg protein | induced |  | inhibition
